According to patent publication US20250101032A1, “EXATECAN DERIVATIVES AND ANTIBODY-DRUG CONJUGATES THEREOF” (priority 2021, published 2025):
Values after ≈ are worked out from the molar mass of the structure shown.

Experiments:
SKOV3 = experiment: In vitro cytotoxicity assay (CellTiter-Glo), SKOV3; format: cell-based; conditions: Homo sapiens, SK-OV-3, 144 h, read-out: Cytotoxicity IC50
Description: (§1) Lyophilized compounds were dissolved in 100% dry DMSO, aliquots frozen and stored at −80° C. […] Shimadzu 3.0 mm×30 mm XR ODS 2.2 μm column was run at 50° C., 1.5 mL/min. Solvent A: 0.1% Formic acid in water, Solvent B: 0.08% Formic acid in methanol-Gradient: 5%-100% B in 3.0 min, 100% solvent B for 0.3 min.
(§2) Cells were plated in 96-well white flat-bottomed plates (Corning) at 2.0×10^3 cells per well in 100 μL culture medium. After incubation for 24 hours, test compounds were added at a range of concentrations as ten point serial dilution as duplicates or triplicates. Following further incubation for 6 days 37° C., 5% CO2, cell viability was assessed with the use of a CellTiter-Glo Luminescent Cell Viability Assay (Promega). Luminescence was measured using the GloMax instrument (Promega). […] For a subset of payloads, each treatment was independently repeated two to eight times, and IC50 values were averaged. […] Standard deviation (stdev) is shown as (N/A) for treatment performed once.

physchem = conditions: 25 °C, pH 7.4, aqueous buffer, kinetic from dmso stock
Description: In-vitro kinetic solubilities of the compounds in PBS pH 7.4 buffer at 25° C. were determined by diluting compounds from 100% dimethyl sulfoxide (DMSO) into PBS buffer and measuring absorbance at 490, 590 and 650 nm. Stock concentrations in 100% DMSO were provided at 1-6 mM in 100% DMSO. Kinetic solubilities were determined by diluting test compounds from 100% DMSO into PBS pH 7.4 buffer, as duplicate, 10 point 2-fold serial dilution starting at 100× dilution of stock DMS solution into PBS buffer in a clear, flat bottom polystyrene assay plates. Total assay volume was 200 microliters. Solutions were mixed by plate shaking, incubated for 30 m at 25° C., and absorbance was read at 490, 590 and 650 nm. […] in PBS buffer was used as a blank. For each test compound, average optical density (GD) at each concentration was determined by averaging the blank corrected sum of absorption at 490 nm, 590 nm and 650 nm, over duplicate measurements. Turbidity threshold optical density value was set as a sum of mean plus two standard deviations of the mean of absorbances at 490, 590 and 650 nm for 1% (v/v) DMSO in PBS pH 7.4 buffer. Highest soluble concentration (micromolar) corresponded to the highest concentration at which average optical density was below optical density value set for turbidity threshold (Table 4). Amiodarone and propranolol were used as low and high solubility controls respectively.

HT29 = experiment: In vitro cytotoxicity assay (CellTiter-Glo), HT29; format: cell-based, Human; conditions: Homo sapiens, HT-29, 144 h, read-out: Cytotoxicity IC50
Description: (§3) Human tumor cell lines, SK-BR-3, NCI-H292, HT-29, MCF-7, NCI-N87, and FaDu were obtained from ATCC. NCI-H292, HT-29, MCF-7, and NCI-N87 cells were cultured in RPMI-1640 media (Gibco, Life Technologies) supplemented with 10% v/v heat inactivated FBS (Corning), FaDu cells were maintained in DMEM media (Gibco, Life Technologies) supplemented with 10% v/v heat inactivated FBS (Corning). SK-BR-3 cells were maintained in McCoys 5A medium (Gibco, Life Technologies) supplemented with 10% […] heat inactivated FBS (Corning) at 37° C. in a humidified incubator containing 5% CO2.
(§4) Lyophilized compounds were dissolved in 100% dry DMSO, aliquots frozen and stored at −80° C. Concentration and purity of compound stock solutions in DMSO were determined by RP-HPLC Agilent 1100 platform with 1200 DAD and SofTA ELSD detectors, and the Agilent 6150 MS system (UV/VIS, ELSD purity and MS compound identity confirmation). Shimadzu 3.0 mm×30 mm XR ODS 2.2 μm column was run at 50° C., 1.5 mL/min. Solvent A: 0.1% Formic acid in water, Solvent B: 0.08% Formic acid in methanol-Gradient: 5%-100% B in 3.0 min, 100% solvent B for 0.3 min. Concentration of compounds in 100% DMSO determined by ELS ranged from 1-6 mM.
as §2

NCI-N87 = experiment: In vitro cytotoxicity assay (CellTiter-Glo), NCI-N87; format: cell-based, Human; conditions: Homo sapiens, NCI-N87, 144 h, read-out: Cytotoxicity IC50
Description: as §3, §4, §2

MCF7 = experiment: In vitro cytotoxicity assay (CellTiter-Glo), MCF7; format: cell-based, Human; conditions: Homo sapiens, MCF7, 144 h, read-out: Cytotoxicity IC50
Description: as §3, §4, §2

BXPC3 = experiment: In vitro cytotoxicity assay (CellTiter-Glo), BXPC3; format: cell-based; conditions: Homo sapiens, BXPC-3, 144 h, read-out: Cytotoxicity IC50
Description: as §1, §2

SKBR3 = experiment: In vitro cytotoxicity assay (CellTiter-Glo), SKBR3; format: cell-based, Human; conditions: Homo sapiens, SK-BR-3, 144 h, read-out: Cytotoxicity IC50
Description: as §3, §4, §2

FaDu = experiment: In vitro cytotoxicity assay (CellTiter-Glo), FaDu; format: cell-based, Human; conditions: Homo sapiens, FaDu, 144 h, read-out: Cytotoxicity IC50
Description: as §3, §4, §2

NCI-H292 = experiment: In vitro cytotoxicity assay (CellTiter-Glo), NCI-H292; format: cell-based, Human; conditions: Homo sapiens, NCI-H292, 144 h, read-out: Cytotoxicity IC50
Description: as §3, §4, §2

Compound: CC[C@@]1(O)C(=O)OCc2c1cc1n(c2=O)Cc2c-1nc1cc(F)c(C)c3c1c2[C@@H](NC(=O)CCC(=O)NCCO)CC3 [Compound 16]
- IC50 (SKOV3): 0.341 µM
- solubility at 30 min (physchem): 22 µM (≈ 12.7 µg/mL)
- IC50 (HT29): 1.14 µM
- IC50 (NCI-N87): 0.736 µM
- IC50 (MCF7): 0.14 µM
- IC50 (BXPC3): 0.149 µM
- IC50 (SKBR3): 0.166 µM
- IC50 (FaDu): 0.072 µM
- IC50 (NCI-H292): 0.29 µM

Compound: CC[C@@]1(O)C(=O)OCc2c1cc1n(c2=O)Cc2c-1nc1cc(F)c(C)c3c1c2[C@@H](NC(=O)NCC(O)CO)CC3 (stereo partly drawn) [Compound 118]
- IC50 (SKOV3): 0.0967 µM
- solubility at 30 min (physchem): 30 µM (≈ 16.6 µg/mL)
- IC50 (HT29): 0.291 µM
- IC50 (NCI-N87): 0.0966 µM
- IC50 (MCF7): 0.0459 µM
- IC50 (BXPC3): 0.0527 µM
- IC50 (SKBR3): 0.0239 µM
- IC50 (FaDu): 0.0175 µM
- IC50 (NCI-H292): 0.0884 µM

Compound: CC[C@@]1(O)C(=O)OCc2c1cc1n(c2=O)Cc2c-1nc1cc(F)c(C)c3c1c2[C@@H](Nc1c(NC(CO)(CO)CO)c(=O)c1=O)CC3 [Compound 18]
- IC50 (SKOV3): 0.167 µM
- solubility at 30 min (physchem): 13 µM (≈ 8.25 µg/mL)
- IC50 (HT29): 0.179 µM
- IC50 (NCI-N87): 0.158 µM
- IC50 (MCF7): 0.0407 µM
- IC50 (BXPC3): 0.0449 µM
- IC50 (SKBR3): 0.0657 µM
- IC50 (FaDu): 0.0429 µM
- IC50 (NCI-H292): 0.0821 µM

Compound: CC[C@@]1(O)C(=O)OCc2c1cc1n(c2=O)Cc2c-1nc1cc(F)c(C)c3c1c2[C@@H](NC(=O)c1cn(CCO)nn1)CC3 [Compound 52]
- IC50 (SKOV3): 0.0129 µM
- solubility at 30 min (physchem): 25 µM (≈ 14.4 µg/mL)
- IC50 (HT29): 0.0233 µM
- IC50 (NCI-N87): 0.0101 µM
- IC50 (MCF7): 0.0059 µM
- IC50 (BXPC3): 0.0034 µM
- IC50 (SKBR3): 0.0025 µM
- IC50 (FaDu): 0.0042 µM
- IC50 (NCI-H292): 0.0068 µM

Compound: CC[C@@]1(O)C(=O)OCc2c1cc1n(c2=O)Cc2c-1nc1cc(F)c(C)c3c1c2[C@@H](Nc1c(NCCO)c(=O)c1=O)CC3 [Compound 2]
- IC50 (SKOV3): 0.124 µM
- solubility at 30 min (physchem): 15 µM (≈ 8.62 µg/mL)
- IC50 (HT29): 0.18 µM
- IC50 (NCI-N87): 0.111 µM
- IC50 (MCF7): 0.0414 µM
- IC50 (BXPC3): 0.0298 µM
- IC50 (SKBR3): 0.0754 µM
- IC50 (FaDu): 0.0234 µM
- IC50 (NCI-H292): 0.096 µM

Compound: CC[C@@]1(O)C(=O)OCc2c1cc1n(c2=O)Cc2c-1nc1cc(F)c(C)c3c1c2[C@@H](NS(=O)(=O)CCCO)CC3 [Compound 110]
- IC50 (SKOV3): 0.0592 µM
- solubility at 30 min (physchem): 18 µM (≈ 10 µg/mL)
- IC50 (HT29): 0.0286 µM
- IC50 (NCI-N87): 0.0182 µM
- IC50 (MCF7): 0.0224 µM
- IC50 (BXPC3): 0.0157 µM
- IC50 (SKBR3): 0.0076 µM
- IC50 (FaDu): 0.0156 µM
- IC50 (NCI-H292): 0.0188 µM

Compound: CC[C@@]1(O)C(=O)OCc2c1cc1n(c2=O)Cc2c-1nc1cc(F)c(C)c3c1c2[C@@H](NC(=O)c1ccc(CO)o1)CC3 [Compound 103]
- IC50 (SKOV3): 0.0265 µM
- solubility at 30 min (physchem): 7 µM (≈ 3.92 µg/mL)
- IC50 (HT29): 0.0144 µM
- IC50 (NCI-N87): 0.0172 µM
- IC50 (MCF7): 0.0046 µM
- IC50 (BXPC3): 0.0064 µM
- IC50 (SKBR3): 0.0069 µM
- IC50 (FaDu): 0.0015 µM
- IC50 (NCI-H292): 0.006 µM

Compound: CC[C@@]1(O)C(=O)OCc2c1cc1n(c2=O)Cc2c-1nc1cc(F)c(C)c3c1c2[C@@H](NC(=O)OCCO)CC3 [Compound 22]
- IC50 (SKOV3): 0.0019 µM
- solubility at 30 min (physchem): 23 µM (≈ 12 µg/mL)
- IC50 (HT29): 0.0057 µM
- IC50 (NCI-N87): 0.0026 µM
- IC50 (MCF7): 0.0023 µM
- IC50 (BXPC3): 0.0007 µM
- IC50 (SKBR3): 0.0012 µM
- IC50 (FaDu): 0.0007 µM
- IC50 (NCI-H292): 0.0027 µM
